Measured values from patent US9586947B2, “Imidazoline derivatives, preparation methods thereof, and their applications in medicine” (priority 2012, dated 2017).
Read-outs that look alike come from different tables or passages of the source.

Assays:
[1] = test system: PSA secretion of LNCaP cells; test: Inhibitory activity on PSA secretion of LNCaP cells; format: cell-based; details: Homo sapiens, 96 h, read-out: IC50 (inhibition of PSA secretion of LNCaP cells)
Description: The following in vitro assay was performed to determine the activity of the compounds of the present invention for inhibiting prostate specific antigen (PSA) secretion of LNCaP cells.
(11). Testosterone culture medium: RIPM 1640 culture medium, 10% CS-FBS, 1% Pen Strep, 1 nM testosterone
LNCaP cells were subcultured in cell culture medium, resuspended in active carbon culture medium, and then inoculated into a 96-well plate (100 μl/well) with an inoculation density of 5×10^4 cells/well.
The test compounds were dissolved in DMSO (dimethyl sulfoxide) and prepared as a 10 mM stock solution. When used, the stock solution was diluted with 5×DMSO and then diluted with a threefold gradient to obtain 8 gradient concentrations. Then, the 8 gradient concentrations were each diluted with 20× testosterone culture medium, in order to ensure DMSO concentration in each culture system was 0.5%. Diluted test compounds remained to be tested.
10 μl of diluted test compounds were added to a 96-well plate and mixed gently. 10 μl of 0.5% DMSO diluted with active carbon culture medium was added to the blank group, and 10 μl of 0.5% DMSO diluted with testosterone culture medium was added to the control group. The 96-well plate was cultured in an incubator under the conditions of 37° C. and 5% CO2.
After 4 days of incubation, 60 μl of cell cultural supernatants were collected, and the OD450 value per well was measured on a NOVO Star microplate reader using PSA kit (Abnova, KA0208).
(§1) IC50 values were calculated from the data of the inhibition rates of the test compounds at various concentrations.

[2] = test system: LNCaP cells; test: Proliferation inhibition of LNCaP cells (CCK-8); format: cell-based; details: Homo sapiens, 144 h, cultured 3 + 3 days, CCK-8, OD at 450 nm
Description: The following in vitro assay was performed to determine the activity of the compounds of the present invention for inhibiting the proliferation of LNCaP cells.
(1). Cell counting reagent CCK-8 (DOJINDO, CK04)
See experimental procedure from Test Example 1.
After LNCaP cells were cultured for 3 days, the culture medium, test compounds, blank group, and control group were renewed with half of the liquid volume, and were cultured for another 3 days. Then, all 96-well plates were mixed gently with 10 μl of CCK-8 and cultured in an incubator for 2-3 hours under the conditions of 37° C. and 5% CO2. The OD value per well was measured at 450 nm on a Victor3 microplate reader.
as §1

[3] = Pharmacokinetics assay in rats, intragastric administration; format: in vivo; details: Sprague-Dawley, rat, in vivo, po, male SD rats, 5 mg/kg; for Vd/F: read-out: Apparent Distribution Volume Vz/F; for AUC: read-out: Area Under Curve AUC; for CL/F: read-out: Clearance CLz/F; for half-life: read-out: Half-Life T½ (converted); for MRT: read-out: Mean Residence Time MRT; for Cmax: read-out: Plasma Conc. Cmax
Description: Male rats were used as test animals. The compounds of Example 6, Example 9, Example 11, Example 13, Example 15, Example 16, Example 17, Example 44, and Example 45 were administered intragastrically to rats to determine the drug concentration in plasma at different time points by LC/MS/MS method. The pharmacokinetic behavior of the compounds of the present invention was studied and evaluated in rats.
27 healthy adult male Sprague-Dawley (SD) rats, purchased from SINO-BRITISH SIPPR/BK LAB. ANIMAL LTD., CO, Certificate No.: SCXK (Shanghai) 2008-0016, were divided into 9 groups, with 3 rats in each group.
The appropriate amount of test compounds was weighed and mixed with 0.5% CMC-Na to prepare a 0.5 mg/mL suspension by an ultrasonic method.
After an overnight fast, 27 SD rats were divided into 9 groups, and administered the compounds intragastrically at a dose of 5.0 mg/kg and an administration volume of 10 mL/kg.
Compounds of Example 6, Example 9, Example 11, Example 13, Example 15, Example 16, Example 17, Example 44, and Example 45 were administered intragastrically to rats. Blood samples (0.1 mL) were taken from the orbital sinus before administration, and at 0.5 h, 1.0 h, 2.0 h, 3.0 h, 4.0 h, 6.0 h, 8.0 h, 11.0 h, and 24.0 h after administration, stored in heparinized tubes, and centrifuged for 5 minutes at 3,500 rpm to separate blood plasma. The plasma samples were stored at −20° C. The rats were fed 2 hours after administration.
The concentration of the different test compounds in rat plasma after intragastrically administering the test compounds was determined by LC-MS/MS method. The linearity of the method is 1.00-2000 ng/ml. Plasma samples were analyzed after protein precipitation was accomplished by the addition of methanol.

[4] = LNCaP cells, 1 nM testosterone medium, 4 days of incubation, PSA kit OD450

CN1CCC(Oc2ccc(N3C(=S)N(c4ccc(C#N)c(C(F)(F)F)c4)C(=O)C3(C)C)cc2F)C1 (stereo not shown) [Example 29, 4-(3-(3-Fluoro-4-((1-methylpyrrolidin-3-yl)oxy)phenyl)-4,4-dimethyl-5-oxo-2-thioxoimidazolidin-1-yl)-2-(trifluoromethyl)benzonitrile]
IC50 [1, 4]: 85 nM | IC50 [2]: 80 nM

CC(=O)N1CCC(Oc2ccc(N3C(=S)N(c4ccc(C#N)c(C(F)(F)F)c4)C(=O)C3(C)C)cc2F)C1 (stereo not shown) [Example 36, 4-(3-(4-((1-Acetylpyrrolidin-3-yl)oxy)-3-fluorophenyl)-4,4-dimethyl-5-oxo-2-thioxoimidazolidin-1-yl)-2-(trifluoromethyl)benzonitrile]
IC50 [1, 4]: 23 nM | IC50 [2]: 115 nM

CC1(C)C(=O)N(c2ccc(C#N)c(C(F)(F)F)c2)C(=S)N1c1ccc(OCCCS(C)(=O)=O)c(F)c1 [Example 22, 4-(3-(3-Fluoro-4-(3-(methylsulfonyl)propoxy)phenyl)-4,4-dimethyl-5-oxo-2-thioxoimidazolidin-1-yl)-2-(trifluoromethyl)benzonitrile]
IC50 [1, 4]: 21 nM | IC50 [2]: 134 nM

CNC(=O)c1ccccc1Oc1ccc(N2C(=S)N(c3ccc(C#N)c(C(F)(F)F)c3)C(=O)C2(C)C)cc1F [Example 26, 2-(4-(3-(4-Cyano-3-(trifluoromethyl)phenyl)-5,5-dimethyl-4-oxo-2-thioxoimidazolidin-1-yl)-2-fluorophenoxy)-N-methylbenzamide]
IC50 [1, 4]: 44 nM | IC50 [2]: 201 nM

CC1(C)C(=O)N(c2ccc(C#N)c(C(F)(F)F)c2)C(=S)N1c1ccc(OC2CCNCC2)c(F)c1 [Example 19, 4-(3-(3-Fluoro-4-((piperidin-4-yl)oxy)phenyl)-4,4-dimethyl-5-oxo-2-thioxoimidazolidin-1-yl)-2-(trifluoromethyl)benzonitrile]
IC50 [1, 4]: 94 nM | IC50 [2]: 194 nM

CC1(C)C(=O)N(c2ccc(C#N)c(C(F)(F)F)c2)C(=S)N1c1ccc(OCC2(N)CC2)nc1 [Example 11, 4-(3-(6-((1-Aminocyclopropyl)methoxy)pyridin-3-yl)-4,4-dimethyl-5-oxo-2-thioxoimidazolidin-1-yl)-2-(trifluoromethyl)benzonitrile]
IC50 ([1]; LNCaP): 35 nM | Vd/F [3]: 9.94 ± 0.633 L/kg | AUC [3]: 11400 ± 1380 ng·h/mL | CL/F [3]: 7.35 ± 0.87 mL/min/kg | half-life [3]: 15.8 ± 2.2 h | MRT [3]: 23.2 ± 2.9 h | Cmax [3]: 430 ± 14 ng/mL

CC1(C)C(=O)N(c2ccc(C#N)c(C(F)(F)F)c2)C(=S)N1c1ccc(OC[C@H](O)CO)c(F)c1 [Example 50, (R)-4-(3-(4-(2,3-Dihydroxypropoxy)-3-fluorophenyl)-4,4-dimethyl-5-oxo-2-thioxoimidazolidin-1-yl)-2-(trifluoromethyl)benzonitrile]
IC50 ([1]; LNCaP): 43 nM

CC1(C)C(=O)N(c2ccc(C#N)c(C(F)(F)F)c2)C(=S)N1c1ccc(OC2CCOCC2)c(F)c1 [Example 4, 4-(3-(3-Fluoro-4-((tetrahydro-2H-pyran-4-yl)oxy)phenyl)-4,4-dimethyl-5-oxo-2-thioxoimidazolidin-1-yl)-2-(trifluoromethyl)benzonitrile]
IC50 [1, 4]: 93 nM

CC1(C)C(=O)N(c2ccc(C#N)c(C(F)(F)F)c2)C(=S)N1c1ccc(OC[C@@H](O)CO)c(F)c1 [Example 49, (S)-4-(3-(4-(2,3-Dihydroxypropoxy)-3-fluorophenyl)-4,4-dimethyl-5-oxo-2-thioxoimidazolidin-1-yl)-2-(trifluoromethyl)benzonitrile]
IC50 ([1]; LNCaP): 35 nM

CC(=O)N1CC(O)C(Oc2ccc(N3C(=S)N(c4ccc(C#N)c(C(F)(F)F)c4)C(=O)C3(C)C)cc2F)C1 (stereo not shown) [Example 46, 4-(3-(4-((1-Acetyl-4-hydroxypyrrolidin-3-yl)oxy)-3-fluorophenyl)-4,4-dimethyl-5-oxo-2-thioxoimidazolidin-1-yl)-2-(trifluoromethyl)benzonitrile]
IC50 [1, 4]: 47 nM

CN1CC(O)C(Oc2ccc(N3C(=S)N(c4ccc(C#N)c(C(F)(F)F)c4)C(=O)C3(C)C)cc2F)C1 (stereo not shown) [Example 47, 4-(3-(3-Fluoro-4-((4-hydroxy-1-methylpyrrolidin-3-yl)oxy)phenyl)-4,4-dimethyl-5-oxo-2-thioxoimidazolidin-1-yl)-2-(trifluoromethyl)benzonitrile]
IC50 [1, 4]: 21 nM

CC1(C)C(=O)N(c2ccc(C#N)c(C(F)(F)F)c2)C(=S)N1c1ccc(OCCO)cc1 [Example 17, 4-(3-(4-(2-Hydroxyethoxy)phenyl)-4,4-dimethyl-5-oxo-2-thioxoimidazolidin-1-yl)-2-(trifluoromethyl)benzonitrile]
IC50 ([1]; LNCaP): 24 nM | Vd/F [3]: 3.76 ± 0.591 L/kg | AUC [3]: 12200 ± 1520 ng·h/mL | CL/F [3]: 6.88 ± 0.89 mL/min/kg | half-life [3]: 6.31 ± 0.5 h | MRT [3]: 10.8 ± 0.8 h | Cmax [3]: 864 ± 86 ng/mL

CN1CC[C@H](Oc2ccc(N3C(=S)N(c4ccc(C#N)c(C(F)(F)F)c4)C(=O)C3(C)C)cc2F)C1 [Example 27, (S)-4-(3-(3-Fluoro-4-((1-methylpyrrolidin-3-yl)oxy)phenyl)-4,4-dimethyl-5-oxo-2-thioxoimidazolidin-1-yl)-2-(trifluoromethyl)benzonitrile]
IC50 [1, 4]: 83 nM

CC1(C)C(=O)N(c2ccc(C#N)c(C(F)(F)F)c2)C(=S)N1c1ccc(O[C@@H]2COC[C@H]2O)cc1 (racemic) [Example 14, 4-(3-(4-(((3R,4R/3S,4S)-4-Hydroxytetrahydrofuran-3-yl)oxy)phenyl)-4,4-dimethyl-5-oxo-2-thioxoimidazolidin-1-yl)-2-(trifluoromethyl)benzonitrile]
IC50 ([1]; LNCaP): 19 nM

CC1(C)C(=O)N(c2ccc(C#N)c(C(F)(F)F)c2)C(=S)N1c1ccc(O[C@@H]2COC[C@H]2O)c(F)c1 (racemic) [Example 7, 4-(3-(3-Fluoro-4-(((3R,4R/3S,4S)-4-hydroxytetrahydrofuran-3-yl)oxy)phenyl)-4,4-dimethyl-5-oxo-2-thioxoimidazolidin-1-yl)-2-(trifluoromethyl)benzonitrile]
IC50 ([1]; LNCaP): 23 nM

Cc1cc(N2C(=O)C(C)(C)N(c3ccc(OCC4(N)CC4)c(F)c3)C2=S)ccc1C#N [Example 38, 4-(3-(4-((1-Aminocyclopropyl)methoxy)-3-fluorophenyl)-4,4-dimethyl-5-oxo-2-thioxoimidazolidin-1-yl)-2-methylbenzonitrile]
IC50 [1, 4]: 33 nM

CC1(C)C(=O)N(c2ccc(C#N)c(C(F)(F)F)c2)C(=S)N1c1ccc(O[C@H]2COC[C@@H]2O)cc1 [Example 16, 4-(3-(4-(((3S,4S)-4-hydroxytetrahydrofuran-3-yl)oxy)phenyl)-4,4-dimethyl-5-oxo-2-thioxoimidazolidin-1-yl)-2-(trifluoromethyl)benzonitrile]
IC50 ([1]; LNCaP): 12 nM | Vd/F [3]: 3.59 ± 0.662 L/kg | AUC [3]: 23300 ± 5900 ng·h/mL | CL/F [3]: 3.71 ± 0.84 mL/min/kg | half-life [3]: 11.3 ± 1.3 h | MRT [3]: 18.4 ± 2.6 h | Cmax [3]: 971 ± 147 ng/mL
